Where a name gives a salt, the structure may show the parent alone.
Target: T1, histamine H3 receptor (Homo sapiens, UniProt Q9Y5N1)
T1 construct: expressed in transfected cells; host or cells: CHO K1 cells carrying pSwitch, transfected with pGeneH3 and induced with mifepristone; clone 3H3; membranes
Assay: Histamine H3 functional antagonist assay ([35S]GTPγS SPA, membranes of CHO K1 cells expressing human H3)
Type: biochemical
Conditions: functional antagonism of histamine (0.3 μM) stimulated [35S]GTPγS binding, membranes of CHO K1 cells with human histamine H3
Description: A membrane preparation containing histamine H3 receptors may be prepared in accordance with the following procedures:
Ligated DNA was transformed into competent DH5α E. coli host bacterial cells and plated onto Luria Broth (LB) agar containing Zeocin™ (an antibiotic which allows the selection of cells expressing the sh ble gene which is present on pGene and pSwitch) at 50 μg ml^−1. Colonies containing the re-ligated plasmid were identified by restriction analysis. DNA for transfection into mammalian cells was prepared from 250 ml cultures of the host bacterium containing the pGeneH3 plasmid and isolated using a DNA preparation kit (Qiagen Midi-Prep) as per manufacturers guidelines (Qiagen).
CHO K1 cells previously transfected with the pSwitch regulatory plasmid (InVitrogen) were seeded at 2×10e6 cells per T75 flask in Complete Medium, containing Hams F12 (GIBCOBRL, Life Technologies) medium supplemented with 10% v/v dialysed foetal bovine serum, L-glutamine, and hygromycin (100 μg ml^−1), 24 hours prior to use. Plasmid DNA was transfected into the cells using Lipofectamine plus according to the manufacturers guidelines (InVitrogen). 48 hours post transfection cells were placed into complete medium supplemented with 500 μg ml^−1 Zeocin™.
10-14 days post selection 10 nM Mifepristone (InVitrogen), was added to the culture medium to induce the expression of the receptor. […] Approximately 1×10e7 cells were examined for receptor expression by staining with a rabbit polyclonal antibody, 4a, raised against the N-terminal domain of the histamine H3 receptor, incubated on ice for 60 minutes, followed by two washes in sorting medium. […] Following two further washes with Sorting Medium, cells were filtered through a 50 μm Filcon™ (BD Biosciences) and then analysed on a FACS Vantage SE Flow Cytometer fitted with an Automatic Cell Deposition Unit. […] Positively stained cells were sorted as single cells into 96-well plates, containing Complete Medium containing 500 μg ml^−1 Zeocin™ and allowed to expand before reanalysis for receptor expression via antibody and ligand binding studies.
All steps of the protocol are carried out at 4° C. and with pre-cooled reagents. The cell pellet is resuspended in 10 volumes of buffer A2 containing 50 mM N-2-hydroxyethylpiperazine-N′-2-ethanesulfonic acid (HEPES)(pH 7.40) supplemented with 10e−4M leupeptin (acetyl-leucyl-leucyl-arginal; Sigma L2884), 25 μg/ml bacitracin (Sigma B0125), 1 mM ethylenediamine tetra-acetic acid (EDTA), 1 mM phenylmethylsulfonyl fluoride (PMSF) and 2×10e−6M pepstain A (Sigma). The cells are then homogenised by 2×15 second bursts in a 1 litre glass Waring blender, followed by centrifugation at 500 g for 20 minutes. The supernatant is then spun at 48,000 g.for 30 minutes. The pellet is resuspended in 4 volumes of buffer A2 by vortexing for 5 seconds, followed by homogenisation in a Dounce homogeniser (10-15 strokes). At this point the preparation is aliquoted into polypropylene tubes and stored at −70° C. […]
The plate is then incubated on a shaker at room temperature for 30 minutes followed by centrifugation for 5 minutes at 1500 rpm. The plate is read between 3 and 6 hours after completion of centrifuge run in a Wallac Microbeta counter on a 1 minute normalised tritium count protocol. Data is analysed using a 4-parameter logistic equation. Basal activity used as minimum i.e. histamine not added to well.

T1 sequence (Q9Y5N1 whole entry): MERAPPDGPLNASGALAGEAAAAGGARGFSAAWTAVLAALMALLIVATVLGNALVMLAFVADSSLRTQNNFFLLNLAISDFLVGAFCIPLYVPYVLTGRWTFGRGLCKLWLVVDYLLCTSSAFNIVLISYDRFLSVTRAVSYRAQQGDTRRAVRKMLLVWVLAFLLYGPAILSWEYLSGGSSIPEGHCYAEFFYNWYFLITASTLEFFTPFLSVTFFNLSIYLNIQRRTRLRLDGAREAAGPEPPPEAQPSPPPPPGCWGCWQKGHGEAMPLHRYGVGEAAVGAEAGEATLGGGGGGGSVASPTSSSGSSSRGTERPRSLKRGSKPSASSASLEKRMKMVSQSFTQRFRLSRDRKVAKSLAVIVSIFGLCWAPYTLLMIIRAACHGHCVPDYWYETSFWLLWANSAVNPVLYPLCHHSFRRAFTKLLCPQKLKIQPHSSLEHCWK

With `COc1ccc(N2CCC(C(=O)N3CCCN(C(C)C)CC3)CC2)cn1` [Example E62, 1-Isopropyl-4-[1-(6-methoxypyridin-3-yl)-piperidine-4-carbonyl]-[1,4]-diazepane] as the compound, how does the Kb read?
Its Kb is < 3.16 nM.

With `CC(C)N1CCCN(C(=O)C2CCN(c3ccc(C#N)c(F)c3F)CC2)CC1` [Example E63, 1-Isopropyl-4-[1-(4-cyano-2,3-difluorophenyl)-piperidine-4-carbonyl]-[1,4]-diazepane] as the compound, how does the Kb read?
Its Kb is < 3.16 nM.

How did the Kb turn out when `CC(C)N1CCCN(C(=O)C2CCN(c3ccc(C#N)cc3Cl)CC2)CC1` [Example E64, 1-Isopropyl-4-[1-(4-cyano-2-chlorophenyl)-piperidine-4-carbonyl]-[1,4]-diazepane] was run?
Its Kb is < 3.16 nM.

`N#Cc1ccc(N2CCC(C(=O)N3CCCN(C4CCC4)CC3)CC2)c(Cl)c1` [Example E65, 1-Cyclobutyl-4-[1-(4-cyano-2-chlorophenyl)-piperidine-4-carbonyl]-[1,4]-diazepane] was tested. Which Kb did it give?
Its Kb is < 3.16 nM.

How did the Kb turn out when `N#Cc1ccc(N2CCC(C(=O)N3CCCN(C4CCC4)CC3)CC2)cc1Cl` [Example E66, 1-Cyclobutyl-4-[1-(4-cyano-3-chlorophenyl)-piperidine4-carbonyl]-[1,4]-diazepane] was run?
The Kb was < 3.16 nM.

With `N#Cc1ccc(N2CCC(C(=O)N3CCCN(C4CCC4)CC3)CC2)cc1F` [Example E67, 1-Cyclobutyl-4-[1-(4-cyano-3-fluorophenyl)-piperidine4-carbonyl]-[1,4]-diazepane] as the compound, how does the Kb read?
The Kb was < 3.16 nM.

`N#Cc1ccc(N2CCC(C(=O)N3CCCN(C4CCC4)CC3)CC2)cc1C(F)(F)F` [Example E68, 1-Cyclobutyl-4-[1-(4-cyano-3-trifluoromethylphenyl)-piperidine4-carbonyl]-[1,4]-diazepane] was tested. Which Kb did it give?
The Kb was < 3.16 nM.

For `CC(C)N1CCN(C(=O)C2CCN(c3ccc(C#N)cc3)CC2)C[C@@H]1C` [Example E70, (S)-1-Isopropyl-4-[1-(4-cyanophenyl)-piperidine-4-carbonyl]-2-methylpiperazine], which Kb is on record?
The Kb was < 3.16 nM.

How did the Kb turn out when `CC(C)N1CCN(C(=O)C2CCN(c3ccc(C#N)nc3)CC2)C[C@@H]1C` [Example E78, (S)-1-Isopropyl-4-[1-(6-cyanopyridin-3-yl)-piperidine-4-carbonyl]-2-methyl piperazine] was run?
Its Kb is < 3.16 nM.

With `CC(C)N1CCN(C(=O)C2CCN(c3ccc(C(F)(F)F)nc3)CC2)C[C@@H]1C` [Example E79, (S)-1-Isopropyl-4-[1-(6-trifluoromethylpyridin-3-yl)-piperidine-4-carbonyl]-2-methyl piperazine] as the compound, how does the Kb read?
Its Kb is < 1 nM.

`CC(C)N1CCN(C(=O)C2CCN(c3ccc(C#N)cn3)CC2)C[C@@H]1C` [Example E86, (S)-1-Isopropyl-4-[1-(5-cyanopyridin-2-yl)-piperidine4-carbonyl]-2-methyl piperazine] was tested. Which Kb did it give?
The Kb was < 3.16 nM.

`CC(C)N1CCN(C(=O)C2CCN(c3cnc(C(F)(F)F)cn3)CC2)C[C@@H]1C` [Example E87, (S)-1-Isopropyl-4-[1-(5-trifluoromethyl-pyrazin-2-yl)-piperidine4-carbonyl]-2-methyl piperazine] was tested. Which Kb did it give?
Its Kb is < 3.16 nM.

Which Kb does the source give for `CC(C)N1CCN(C(=O)C2CCN(c3ccc(C(F)(F)F)nn3)CC2)C[C@@H]1C` [Example E88, (S)-1-Isopropyl-4-[1-(6-trifluoromethyl-pyridazin-3-yl)-piperidine-4-carbonyl]-2-methyl piperazine] here?
Its Kb is < 3.16 nM.

With `CC(C)N1CCN(C(=O)C2CCN(c3ccc(-c4nnc(-c5ccccc5)o4)cc3)CC2)CC1` [Example E90, 1-Isopropyl-4-{1-[4-(5-phenyl-1,3,4-oxadiazol-2-yl)phenyl]-piperidine-4-carbonyl} piperazine] as the compound, how does the Kb read?
Its Kb is < 3.16 nM.

With `CC(C)N1CCN(C(=O)C2CCN(c3ccc4ncccc4c3)CC2)CC1` [Example E91, 1-Isopropyl-4-[1-(quinolin-6-yl)-piperidine4-carbonyl]piperazine] as the compound, how does the Kb read?
The Kb was < 3.16 nM.

With `CC(C)N1CCN(C(=O)C2CCN(c3ccc(C(F)(F)F)nc3)CC2)CC1` [Example E96, 1-Isopropyl-4-[1-(6-trifluoromethylpyridin-3-yl)-piperidine-4-carbonyl]-piperazine] as the compound, how does the Kb read?
The Kb was < 0.316 nM.

With `O=C(C1CCN(c2ccc(C(F)(F)F)nc2)CC1)N1CCN(C2CCC2)CC1` [Example E97, 1-Cyclobutyl-4-[1-(6-trifluoromethylpyridin-3-yl)-piperidine-4-carbonyl]piperazine] as the compound, how does the Kb read?
Its Kb is < 3.16 nM.

`CC(C)N1CCN(C(=O)C2CCN(c3cnc(C(F)(F)F)cn3)CC2)CC1` [Example E102, 1-Isopropyl-4-[1-(5-trifluoromethyl-pyrazin-2-yl)-piperidine4-carbonyl]-piperazine] was tested. Which Kb did it give?
Its Kb is < 3.16 nM.

How did the Kb turn out when `CC[C@H](C)N1CCN(C(=O)C2CCN(c3ccc(C#N)cc3)CC2)CC1` [Example E104] was run?
The Kb was < 3.16 nM.

`CC(C)N1CCN(C(=O)C2CCN(c3ccc(C(=O)C4CC4)cc3)CC2)CC1` [Example E105, 1-Isopropyl-4-[1-(4-cyclopropylcarbonylphenyl)-piperidine4-carbonyl]-piperazine] was tested. Which Kb did it give?
The Kb was < 3.16 nM.

For `Cc1ccc2cc(N3CCC(C(=O)N4CCN(C(C)C)CC4)CC3)ccc2n1` [Example E118, 1-Isopropyl-4-[1-(2-methyl-quinolin-6-yl)-piperidine-4-carbonyl]-piperazine], which Kb is on record?
Its Kb is < 3.16 nM.

How did the Kb turn out when `CC(C)N1CCN(C(=O)C2CCN(c3ccc(C#N)nc3)CC2)CC1` [Example E129, 1-Isopropyl-4-[1-(6-cyano-pyridin-3-yl)-piperidine-4-carbonyl]-piperazine] was run?
Its Kb is < 3.16 nM.

For `CC(C)N1CCCN(C(=O)C2CCN(c3ccc(C(F)(F)F)nc3)CC2)CC1` [Example E135, 1-Isopropyl-4-[1-(6-trifluoromethylpyridin-3-yl)-pipenidine-4-carbonyl]-[1,4]-diazepane, hydrochloride], which Kb is on record?
Its Kb is < 0.316 nM.

Which Kb does the source give for `O=C(C1CCN(c2ccc(C(F)(F)F)nc2)CC1)N1CCCN(C2CCC2)CC1` [Example E136, 1-Cyclobutyl-4-[1-(6-trifluoromethylpyridin-3-yl)-piperidine4-carbonyl]-[1,4]-diazepane] here?
The Kb was < 3.16 nM.

With `N#Cc1cc(N2CCC(C(=O)N3CCCN(C4CCC4)CC3)CC2)ccn1` [Example E137, 1-Cyclobutyl-4-[1-(2-cyanopyridin-4-yl)-piperidine-4-carbonyl]-[1,4]-diazepane] as the compound, how does the Kb read?
Its Kb is < 3.16 nM.

Which Kb does the source give for `CC(C)N1CCCN(C(=O)C2CCN(c3ccc(C(F)(F)F)nn3)CC2)CC1` [Example E138, 1-Isopropyl-4-[1-(6-trifluoromethylpyridazin-3-yl)-piperidine-4-carbonyl]-[1,4]-diazepane] here?
The Kb was < 3.16 nM.

With `CC(C)N1CCCN(C(=O)C2CCN(c3cnc(C(F)(F)F)cn3)CC2)CC1` [Example E139, 1-Isopropyl-4-[1-(5-trifluoromethylpyrazin-2-yl)-piperidine4-carbonyl]-[1,4]-diazepane] as the compound, how does the Kb read?
Its Kb is < 3.16 nM.

For `CC(=O)c1ccc(N2CCC(C(=O)N3CCCN(C(C)C)CC3)CC2)cc1` [Example E150, 1-Isopropyl-4-[1-(4-acetylphenyl)-piperidine-4-carbonyl]-[1,4]-diazepane], which Kb is on record?
Its Kb is < 1 nM.

For `CCC(=O)c1ccc(N2CCC(C(=O)N3CCCN(C(C)C)CC3)CC2)cc1` [Example E151, 1-Isopropyl-4-[1-(4-propanoylphenyl)-piperidine-4-carbonyl]-[1,4]-diazepane], which Kb is on record?
Its Kb is < 1 nM.

With `Cc1ncc(-c2ccc(N3CCC(C(=O)N4CCCN(C(C)C)CC4)CC3)cc2)o1` [Example E154, 1-Isopropyl-4-{1-[4-(2-methyl-1,3-oxazol-5-yl)phenyl]-piperidine4-carbonyl}-[1,4]-diazepane] as the compound, how does the Kb read?
Its Kb is < 3.16 nM.

With `Cc1noc(-c2ccc(N3CCC(C(=O)N4CCCN(C(C)C)CC4)CC3)cc2)n1` [Example E168, 1-Isopropyl-4-{1-[4-(3-methyl-1,2,4-oxadiazol-5-yl)phenyl]-piperidine-4-carbonyl}-[1,4]-diazepane] as the compound, how does the Kb read?
The Kb was < 3.16 nM.

For `CC(=O)Nc1ccc(N2CCC(C(=O)N3CCCN(C(C)C)CC3)CC2)cc1F` [Example E169, 1-Isopropyl-4-[1-(4-acetamido-3-fluorophenyl)-piperidine4-carbonyl]-[1,4]-diazepane], which Kb is on record?
Its Kb is < 3.16 nM.

From patent US7592347B2, “Piperazine derivates and their use for the treatment of neurological and psychiatric diseases” (Glaxo Group Limited, priority 2003, dated 2009)
